Measurements from ChEMBL document CHEMBL2384918, “Identification of Selective Nanomolar Inhibitors of the Human Neuraminidase, NEU4” (ACS Med Chem Lett, 2013).

Tests used:
[1] = molecular target: T1, Sialidase-4 (Homo sapiens, UniProt Q8WWR8); test: Inhibition of human NEU4 using 4-MU-NANA as substrate preincubated for 15 mins before substrate addition measured after 30 mins by fluorescence plate reader analysis
T1 sequence (Q8WWR8 whole entry): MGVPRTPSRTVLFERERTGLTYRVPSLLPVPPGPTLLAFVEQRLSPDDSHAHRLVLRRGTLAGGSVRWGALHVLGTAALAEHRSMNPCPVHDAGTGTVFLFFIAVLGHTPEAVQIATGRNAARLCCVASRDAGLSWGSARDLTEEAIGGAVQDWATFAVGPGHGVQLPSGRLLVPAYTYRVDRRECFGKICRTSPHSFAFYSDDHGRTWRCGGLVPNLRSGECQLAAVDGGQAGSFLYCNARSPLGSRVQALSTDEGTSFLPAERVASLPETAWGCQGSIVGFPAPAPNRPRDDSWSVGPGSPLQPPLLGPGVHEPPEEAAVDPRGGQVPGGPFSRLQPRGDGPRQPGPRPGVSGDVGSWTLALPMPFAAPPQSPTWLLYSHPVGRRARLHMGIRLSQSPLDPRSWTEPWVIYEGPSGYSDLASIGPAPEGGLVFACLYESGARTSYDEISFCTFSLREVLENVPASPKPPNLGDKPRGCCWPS

[2] = molecular target: T2, Sialidase-3 (Homo sapiens, UniProt Q9UQ49); test: Inhibition of human NEU3 using 4-MU-NANA as substrate preincubated for 15 mins before substrate addition measured after 30 mins by fluorescence plate reader analysis
T2 sequence (Q9UQ49 whole entry): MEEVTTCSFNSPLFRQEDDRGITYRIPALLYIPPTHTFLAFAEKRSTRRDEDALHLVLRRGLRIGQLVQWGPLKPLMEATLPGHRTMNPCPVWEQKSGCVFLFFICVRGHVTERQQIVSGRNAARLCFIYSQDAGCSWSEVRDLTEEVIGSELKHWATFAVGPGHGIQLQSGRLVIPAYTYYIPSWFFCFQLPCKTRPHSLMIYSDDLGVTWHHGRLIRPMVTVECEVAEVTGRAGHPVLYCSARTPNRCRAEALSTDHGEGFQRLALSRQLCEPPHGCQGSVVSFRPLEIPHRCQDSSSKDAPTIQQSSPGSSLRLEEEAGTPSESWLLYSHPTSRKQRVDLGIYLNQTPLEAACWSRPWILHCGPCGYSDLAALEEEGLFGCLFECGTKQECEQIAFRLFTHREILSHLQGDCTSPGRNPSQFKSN

[3] = molecular target: Sialidase-1 (Homo sapiens, UniProt Q99519); test: Inhibition of human NEU1 using 4-MU-NANA as substrate preincubated for 15 mins before substrate addition measured after 30 mins by fluorescence plate reader analysis
[4] = molecular target: T1, Sialidase-4; test: Inhibition of human NEU4 using 4-MU-NANA as substrate measured every 30 seconds for 60 mins by fluorescence plate reader analysis

Compound	IC50 [1] [µM]	IC50 [2] [µM]	IC50 [3] [µM]	Ki [4] [µM]
CCOc1cn(C[C@@H](O)[C@@H](O)[C@@H]2OC(C(=O)O)=C[C@H](O)[C@H]2NC(C)=O)nn1	3.6	90	170	
CC(=O)N[C@H]1[C@H]([C@H](O)[C@H](O)Cn2cc(CCO)nn2)OC(C(=O)O)=C[C@@H]1O	0.81	38	> 1000	0.06
CC(=O)N[C@H]1[C@H]([C@H](O)[C@H](O)Cn2cc(CCCO)nn2)OC(C(=O)O)=C[C@@H]1O	2.1	39	660	
CC(=O)N[C@H]1[C@H]([C@H](O)[C@H](O)Cn2cc(-c3ccccc3)nn2)OC(C(=O)O)=C[C@@H]1O	2.3	4.6	> 200	
O=C(Cn1cc(-c2ccccc2)nn1)N[C@H]1[C@H]([C@H](O)[C@H](O)CO)OC(C(=O)O)=C[C@@H]1O	250	> 1000	> 1000	
CC(=O)N[C@H]1[C@H]([C@H](O)[C@H](O)Cn2cc(CO)nn2)OC(C(=O)O)=C[C@@H]1O		80	> 1000	
CC(=O)N[C@H]1[C@H]([C@H](O)[C@H](O)Cn2cc(C(C)(C)O)nn2)OC(C(=O)O)=C[C@@H]1O	4		> 1000	
CC(=O)N[C@H]1[C@H]([C@H](O)[C@H](O)Cn2cc(COc3ccccc3)nn2)OC(C(=O)O)=C[C@@H]1O	1.7	5.5	> 1000	
[N-]=[N+]=NCC(=O)N[C@H]1[C@H]([C@H](O)[C@H](O)CO)OC(C(=O)O)=C[C@@H]1O	4.5	4.7	29	
CC(=O)N[C@H]1[C@H]([C@H](O)[C@H](O)CN=[N+]=[N-])OC(C(=O)O)=C[C@@H]1O	60	19.7	620	
